Active and inactive are the calls of the source. The calls are words filed in the database; no cut-off is given here.
Tests used:
[1] = Inhibition of fungal curdlan induced PD-L1 expression in mouse neutrophils assessed as reduction in PD-L1 positive Ly6G positive neutrophils incubated for 16 hrs by flow cytometry analysis; type: functional, cell-based; conditions: Neutrophil
Neutrophil [2] = test: Induction of apoptosis in mouse neutrophils assessed as late apoptotic cells at 40 uM incubated for 16 hrs by Annexin V-FITC/PI staining based flow cytometry analysis (reference value: 24.4%); type: toxicity, cell-based
Neutrophil [3] = test: Induction of neutrophil-mediated antifungal immunity against Candida albicans SC5314 infected in mouse assessed as increase in neutrophil infiltration in kidney at 50 to 100 mg/kg, po administered once a day for 3 days; type: functional, organism-based; conditions: dose 50-100 mg/kg, time 3.0 day
Candida albicans [4] = test: Induction of neutrophil-mediated antifungal immunity against Candida albicans SC5314 infected in mouse assessed as reduction in PD-L1 positive Ly6G positive neutrophils in kidney at 50 to 100 mg/kg, po administered once a day for 3 days by flow cytometry analysis; type: functional, organism-based; conditions: dose 50-100 mg/kg, time 3.0 day
[5] = Acute toxicity in C57BL/6 mouse assessed as histopathological changes in spleen at 500 mg/kg, po administered as single dose and measured after 14 days; type: organism-based; conditions: in vivo, 336 h, time 14 day
[6] = Subacute toxicity in C57BL/6 mouse assessed as change in kidney weight at 100 mg/kg, po administered daily for 14 days; type: organism-based; conditions: in vivo, 336 h, time 14 day
[7] = Volume of distribution at steady state in male Sprague-Dawley rat at 2 mg/kg, iv by LC-MS/MS analysis; type: ADME, organism-based; conditions: in vivo, read-out: Vdss
[8] = Subacute toxicity in C57BL/6 mouse assessed as effect on urea level in serum at 100 mg/kg, po administered daily for 14 days and measured every day; type: organism-based; conditions: in vivo, 336 h, time 14 day
[9] = Initial plasma concentration in male Sprague-Dawley rat at 2 mg/kg, iv by LC-MS/MS analysis; type: ADME, organism-based
[10] = Cytotoxicity against mouse neutrophils assessed as cell viability at 40 uM relative to control; type: toxicity, cell-based, Neutrophil; conditions: mouse neutrophils, read-out: Activity
[11] = Subacute toxicity in C57BL/6 mouse assessed as effect on ALT level in serum at 100 mg/kg, po administered daily for 14 days and measured every day; type: organism-based; conditions: in vivo, 336 h, time 14 day
Neutrophil [12] = test: Induction of apoptosis in mouse neutrophils assessed as late apoptotic cells at 20 uM incubated for 16 hrs by Annexin V-FITC/PI staining based flow cytometry analysis (reference value: 24.4%); type: toxicity, cell-based
[13] = MRT (0 to t) in male Sprague-Dawley rat at 10 mg/kg, po by LC-MS/MS analysis; type: ADME, organism-based; conditions: in vivo
[14] = Potency index, ratio of test compound IC50 to ACT001 IC50 for cytotoxicity against mouse neutrophils assessed as reduction in cell viability incubated for 16 hrs by flow cytometry analysis; type: toxicity, cell-based, Neutrophil; conditions: read-out: Ratio IC50
[15] = Acute toxicity in C57BL/6 mouse assessed as body weight loss at 500 mg/kg, po administered as single dose and measured every day for 14 days; type: organism-based; conditions: in vivo, 336 h, time 14 day
[16] = Acute toxicity in C57BL/6 mouse assessed as change in heart weight at 500 mg/kg, po administered as single dose and measured after 14 days; type: organism-based; conditions: in vivo, 336 h, time 14 day
Candida albicans [17] = test: Induction of neutrophil-mediated antifungal immunity against Candida albicans SC5314 infected in mouse assessed as inhibition of CXCL1 protein expression in bone marrow at 50 to 100 mg/kg, po administered once a day for 3 days by ELISA; type: functional, organism-based; conditions: dose 50-100 mg/kg, time 3.0 day
[18] = Tmax in male Sprague-Dawley rat at 2 mg/kg, iv by LC-MS/MS analysis; type: ADME, organism-based; conditions: in vivo
Neutrophil [19] = test: Induction of apoptosis in mouse neutrophils assessed as dead cells at 20 uM incubated for 16 hrs by Annexin V-FITC/PI staining based flow cytometry analysis (reference value: 2.04%); type: toxicity, cell-based
[20] = Half life in male Sprague-Dawley rat at 2 mg/kg, iv by LC-MS/MS analysis; type: ADME, organism-based; conditions: in vivo
[21] = Acute toxicity in C57BL/6 mouse assessed as abnormal behavior at 500 mg/kg, po administered as single dose and measured every day for 14 days; type: organism-based; conditions: in vivo, 336 h, time 14 day
[22] = MRT (0 to t) in male Sprague-Dawley rat at 2 mg/kg, iv by LC-MS/MS analysis; type: ADME, organism-based; conditions: in vivo
[23] = Subacute toxicity in C57BL/6 mouse assessed as abnormal behavior at 100 mg/kg, po administered daily for 14 days and measured every day; type: organism-based; conditions: in vivo, 336 h, time 14 day
[24] = Subacute toxicity in C57BL/6 mouse assessed as change in spleen weight at 100 mg/kg, po administered daily for 14 days; type: organism-based; conditions: in vivo, 336 h, time 14 day
[25] = test system: Polymorphonuclear neutrophil; test: Inhibition of fungal curdlan induced CXCL2 protein expression in mouse polymorphonuclear neutrophils at 40 uM incubated for 4 hrs by ELISA; type: functional, cell-based
[26] = Permeability of compound in PBS/EtOH (70:30) buffer incubated for 12 hrs by PAMPA-BBB assay; type: ADME; conditions: read-out: permeability
Neutrophil [27] = test: Induction of apoptosis in mouse neutrophils assessed as early apoptotic cells at 40 uM incubated for 16 hrs by Annexin V-FITC/PI staining based flow cytometry analysis (reference value: 26.9%); type: toxicity, cell-based
Neutrophil [28] = test: Induction of apoptosis in mouse neutrophils assessed as dead cells at 40 uM incubated for 16 hrs by Annexin V-FITC/PI staining based flow cytometry analysis (reference value: 2.04%); type: toxicity, cell-based
[29] = Subacute toxicity in C57BL/6 mouse assessed as effect on AST level in serum at 100 mg/kg, po administered daily for 14 days and measured every day; type: organism-based; conditions: in vivo, 336 h, time 14 day
[30] = Acute toxicity in C57BL/6 mouse assessed as animal death at 500 mg/kg, po administered as single dose and measured every day for 14 days; type: organism-based; conditions: in vivo, 336 h, time 14 day
Candida albicans [31] = test: Antifungal activity against Candida albicans SC5314 assessed as inhibition of fungal growth at 0.25 to 128 ug/ml measured every 3 hrs for 24 hrs by absorbance based analysis; type: functional, organism-based; conditions: dose 0.25-128 µg/ml
[32] = Induction of apoptosis in mouse neutrophils assessed as live cells at 20 uM incubated for 16 hrs by Annexin V-FITC/PI staining based flow cytometry analysis (reference value: 46.6%); type: toxicity, cell-based, Neutrophil; conditions: read-out: Activity
[33] = Oral bioavailability in male Sprague-Dawley rat at 10 mg/kg by LC-MS/MS analysis; type: ADME, organism-based; conditions: in vivo
[34] = Subacute toxicity in C57BL/6 mouse assessed as histopathological changes in kidney at 100 mg/kg, po administered daily for 14 days; type: organism-based; conditions: in vivo, 336 h, time 14 day
[35] = Cytotoxicity against mouse neutrophils assessed as reduction in cell viability incubated for 16 hrs by flow cytometry analysis; type: toxicity, cell-based, Neutrophil
[36] = Acute toxicity in C57BL/6 mouse assessed as change in liver weight at 500 mg/kg, po administered as single dose and measured after 14 days; type: organism-based; conditions: in vivo, 336 h, time 14 day
[37] = Half life in male Sprague-Dawley rat at 10 mg/kg, po by LC-MS/MS analysis; type: ADME, organism-based; conditions: in vivo
[38] = Cmax in male Sprague-Dawley rat at 2 mg/kg, iv by LC-MS/MS analysis; type: ADME, organism-based; conditions: in vivo
[39] = test system: Polymorphonuclear neutrophil; test: Inhibition of fungal curdlan induced CXCL1 protein expression in mouse polymorphonuclear neutrophils at 40 uM incubated for 4 hrs by ELISA; type: functional, cell-based

C[C@@]1(O)CC[C@]23O[C@@]2(C)CC[C@@H]2[C@H](OC(=O)[C@H]2CS(=O)(=O)c2c(Cl)cccc2Cl)[C@@H]13
IC50 [1]: 3.76 µM
Activity (Neutrophil [2]): 30.8%
Activity (Neutrophil [3]): Active
Activity (Candida albicans [4]): Active
Activity [5]: Non-Toxic
Activity [6]: Non-Toxic
Vd [7]: 7.46 L/kg
Activity [8]: Non-Toxic
C0 [9]: 191 ng/mL
viability at 40 µM [10]: 81.5%
Activity [11]: Non-Toxic
Activity (Neutrophil [12]): 27%
MRT last [13]: 104 min
selectivity ratio at 16 h [14]: 10.9
Activity [15]: Non-Toxic
Activity [16]: Non-Toxic
Activity (Candida albicans [17]): Active
Tmax [18]: 8.4 min
Activity (Neutrophil [19]): 2.24%
half-life [20]: 10.2 min
Activity [21]: Non-Toxic
MRT last [22]: 15 min
Activity [23]: Non-Toxic
Activity [24]: Non-Toxic
inhibition [25]: Active
Papp at 12 h [26]: 1.22 ×10⁻⁶ cm/s
Activity (Neutrophil [27]): 28.5%
Activity (Neutrophil [28]): 2.72%
Activity [29]: Non-Toxic
Activity [30]: Non-Toxic
Activity (Candida albicans [31]): inactive
viability at 16 h, 20 µM [32]: 41.4%
bioavailability [33]: 45.1%
Activity [34]: Non-Toxic
IC50 at 16 h [35]: > 320 µM
Activity [36]: Non-Toxic
half-life [37]: 87.6 min
Cmax [38]: 175 ng/mL
inhibition [39]: Active
